The results in this text go back to patent US20120100989A1, “3-Aryl-4-(2-thienylmethylene)isoxazol-5(4H)-ones as Fungicides” (Bayer CropScience AG, priority 2010, published 2012).

One data set can be described thus: log P by HPLC on reversed-phase columns (C 18), EEC directive 79/831 Annex V.A8. It is filed as physicochemical. The conditions noted are these: pH 2.7. How it is done: The log P values were measured according to EEC directive 79/831 Annex V.A8 by HPLC (High Performance Liquid Chromatography) on reversed-phase columns (C 18), using the method below:
The determination was carried out in the acidic range at pH 2.7 using the mobile phases 0.1% aqueous formic acid and acetonitrile; linear gradient from 10% acetonitrile to 95% acetonitrile.
A word on the log P: it is the decadic logarithm of the partition coefficient of the neutral form, usually between octanol and water. As to `Cc1ccsc1C=C1C(=O)ON=C1c1ccccc1Cl` [I-18], the log partition coefficient (log P) amounted to 3.38.

For the compound `Cc1ccc(C=C2C(=O)ON=C2c2ccc(Cl)cc2)s1` [I-25], the lipophilicity (log P) was determined as 3.79.

In the case of `O=C1ON=C(c2ccccc2Cl)C1=Cc1cc(Br)cs1` [I-11], the “log P” value turned out to be 3.92.

Regarding `Cc1ccc(C2=NOC(=O)C2=Cc2sc3ccccc3c2C)cc1` [I-142], the lipophilicity (log P) worked out at 4.51.

Take `O=C1ON=C(c2c(F)cccc2F)C1=Cc1ccc([N+](=O)[O-])s1` [I-76]: the log partition coefficient (log P) is 3.25.

For `O=C1ON=C(c2ccc(F)cc2)C1=Cc1ccc([N+](=O)[O-])s1` [I-54], the “log P” value is given as 3.32.

As for `COc1ccc(C2=NOC(=O)C2=Cc2cccs2)cc1OC` [U-19], the lipophilicity (log P) amounted to 3.01.

For the compound `Cc1cc(C)cc(C2=NOC(=O)C2=Cc2ccc(C)s2)c1` [I-87], the “log P” value turned out to be 4.08.

Regarding `O=C1ON=C(c2ccccc2)C1=Cc1sccc1Br` [I-109], the log partition coefficient (log P) is 3.69.

With `O=C1ON=C(c2cccc(C(F)(F)F)c2)C1=Cc1cccs1` [I-57], the log partition coefficient (log P) stood at 3.61.

In the case of `O=C1ON=C(c2ccccc2)C1=Cc1cccs1` [U-33], the “log P” value was found to be 2.91.

As to `Cc1ccc(C2=NOC(=O)C2=Cc2cccs2)cc1C` [I-92], the “log P” value was 3.73.

As to `COc1ccc(F)cc1C1=NOC(=O)C1=Cc1sccc1C` [U-32], the “log P” value is 3.21.

Regarding `O=C1ON=C(c2ccc(Cl)cc2)C1=Cc1ccc(Br)s1` [I-50], the “log P” value was found to be 4.21.

As for `CSc1ccsc1C=C1C(=O)ON=C1c1ccccc1Cl` [I-16], the “log P” value is recorded as 3.59.

In the case of `Cc1ccsc1C=C1C(=O)ON=C1c1ccc(Cl)cc1` [I-26], the “log P” value turned out to be 3.70.

In the case of `CC(C)(C)c1ccc(C2=NOC(=O)C2=Cc2ccc(Br)s2)cc1` [I-93], the “log P” value is reported as 5.13.

For the compound `COc1cccc(C2=NOC(=O)C2=Cc2cccs2)c1OC` [U-30], the “log P” value worked out at 2.97.

Consider `O=C1ON=C(c2ccc(F)cc2)C1=Cc1sccc1Br` [I-60], for which the log partition coefficient (log P) is on record as 3.74.

As to `COc1ccc(C2=NOC(=O)C2=Cc2sccc2Br)cc1` [I-39], the lipophilicity (log P) is 3.65.

In the case of `O=C1ON=C(c2ccc(-c3ccccc3)cc2)C1=Cc1cccs1` [I-66], the “log P” value is on record as 4.16.

On to `O=C1ON=C(c2ccccc2C(F)(F)F)C1=Cc1cccs1` [I-21], for which the lipophilicity (log P) is reported as 3.03.

For `CCOc1ccccc1C1=NOC(=O)C1=Cc1cccs1` [I-119], the lipophilicity (log P) came out at 3.25.

As to `O=C1ON=C(c2ccccc2Cl)C1=Cc1ccc(Br)s1` [I-103], the “log P” value was 3.94.

For the compound `CCOc1ccc(C2=NOC(=O)C2=Cc2ccc(Br)s2)cc1` [I-83], the log partition coefficient (log P) worked out at 4.20.

For `O=C1ON=C(c2cccc([N+](=O)[O-])c2)C1=Cc1cccs1` [I-24], the “log P” value is given as 2.94.

As for `Cc1ccc(C2=NOC(=O)C2=Cc2cc(Br)cs2)cc1` [U-7], the “log P” value is recorded as 4.09.

Regarding `O=C1ON=C(c2cc(Br)ccc2Cl)C1=Cc1ccc(Cl)s1` [I-138], the “log P” value amounted to 4.45.

For the compound `Cc1cc(C)cc(C2=NOC(=O)C2=Cc2sccc2C)c1` [I-88], the “log P” value stood at 4.03.

Regarding `O=C1ON=C(c2ccccc2)C1=Cc1cc(Br)c(Br)s1` [I-111], the “log P” value is on record as 4.46.

With `Cc1ccc(C=C2C(=O)ON=C2c2cc(Br)ccc2Cl)s1` [I-131], the “log P” value was determined as 4.02.

On to `Cc1ccsc1C=C1C(=O)ON=C1c1cc(Br)ccc1Cl` [I-132], for which the log partition coefficient (log P) is 3.97.

As to `O=C1ON=C(c2ccccc2)/C1=C/c1ccc([N+](=O)[O-])s1` [U-41], the log partition coefficient (log P) is reported as 3.27.

With `O=C1ON=C(c2cccc(Cl)c2)C1=Cc1cccs1` [I-3], the log partition coefficient (log P) was determined as 3.40.

In the case of `O=C1ON=C(c2ccccc2Cl)C1=Cc1cc(Br)c(Br)s1` [I-17], the “log P” value stood at 4.64.

With `Cc1ccc(C)c(C2=NOC(=O)C2=Cc2sccc2C)c1` [I-124], the “log P” value is reported as 3.81.

As to `O=C1ON=C(c2ccc(F)cc2)C1=Cc1cccs1` [I-2], the “log P” value is reported as 3.01.

On to `Cc1cccc(C2=NOC(=O)C2=Cc2sccc2C)c1` [I-86], for which the log partition coefficient (log P) amounted to 3.60.

For `COc1ccc(C2=NOC(=O)C2=Cc2cc(-c3ccccc3)cs2)cc1` [I-62], the “log P” value is reported as 4.23.

In the case of `Cc1ccc(C=C2C(=O)ON=C2c2ccccc2)s1` [U-3], the “log P” value is given as 3.27.

On to `COc1cccc(C2=NOC(=O)C2=Cc2cc(Br)cs2)c1` [U-14], for which the “log P” value is on record as 3.76.

`COc1cccc(C2=NOC(=O)C2=Cc2ccc([N+](=O)[O-])s2)c1` [U-15]: the log partition coefficient (log P) is 3.38.

In the case of `O=C1ON=C(c2ccccc2OCc2ccccc2)C1=Cc1cc(-c2ccccc2)cs1` [I-114], the lipophilicity (log P) was 4.80.

On to `Cc1ccc(C2=NOC(=O)C2=Cc2sccc2Br)cc1` [I-38], for which the “log P” value was 4.25.

Take `Cc1ccc(C2=NOC(=O)C2=Cc2cccs2)c(C)c1` [I-90]: the log partition coefficient (log P) is on record as 3.60.

For `Cc1ccc(/C=C2\C(=O)ON=C2c2ccccc2)s1` [U-42], the log partition coefficient (log P) was 3.35.

Consider `O=C1ON=C(c2ccccc2Cl)C1=Cc1ccc(-c2ccccc2)s1` [I-15], for which the “log P” value was determined as 4.42.

As to `CCOc1ccccc1C1=NOC(=O)C1=Cc1cc(-c2ccccc2)cs1` [I-112], the log partition coefficient (log P) came out at 4.44.

With `O=C1ON=C(c2ccccc2[N+](=O)[O-])C1=Cc1ccc(Br)s1` [I-134], the “log P” value came out at 3.35.

Consider `O=C1ON=C(c2ccccc2OCc2ccccc2)C1=Cc1cccs1` [I-117], for which the “log P” value turned out to be 3.74.

In the case of `O=C1ON=C(c2ccccc2)C1=Cc1ccc(Br)s1` [I-1], the “log P” value was determined as 3.71.

For `Cc1ccsc1C=C1C(=O)ON=C1c1cc(F)ccc1Cl` [I-130], the log partition coefficient (log P) is 3.55.

Turning to `Cc1ccsc1C=C1C(=O)ON=C1c1cc(Br)ccc1Br` [I-125], the “log P” value worked out at 4.02.

As for `COc1cccc(C2=NOC(=O)C2=Cc2cccs2)c1` [U-6], the “log P” value stood at 2.90.

For `CCOc1ccc(C2=NOC(=O)C2=Cc2sccc2C)cc1` [I-82], the log partition coefficient (log P) amounted to 3.61.

Take `Cc1c(C=C2C(=O)ON=C2c2ccccc2Cl)sc2ccccc12` [I-140]: the log partition coefficient (log P) is reported as 4.31.

Turning to `Cc1c(C=C2C(=O)ON=C2c2cc(F)ccc2Cl)sc2ccccc12` [I-146], the “log P” value is recorded as 4.32.

As to `O=C1ON=C(c2ccccc2)C1=Cc1ccc(Cl)s1` [I-105], the “log P” value turned out to be 3.76.

With `O=C1ON=C(c2cc(F)ccc2Cl)C1=Cc1ccc([N+](=O)[O-])s1` [I-133], the log partition coefficient (log P) was determined as 3.50.

As to `O=C1ON=C(c2c(F)cccc2F)C1=Cc1cc(Br)cs1` [I-77], the “log P” value is reported as 3.69.

With `O=C1ON=C(c2ccc(Cl)cc2)C1=Cc1ccc([N+](=O)[O-])s1` [I-51], the “log P” value is on record as 3.70.

For `COc1ccc(C2=NOC(=O)C2=Cc2ccc([N+](=O)[O-])s2)cc1` [U-17], the “log P” value was determined as 6.31.

`O=C1ON=C(c2c(F)cccc2F)C1=Cc1cccs1` [I-59]: the “log P” value is on record as 2.97.

For `Cc1cccc(C2=NOC(=O)C2=Cc2ccc(C)s2)c1` [I-85], the “log P” value came to 3.67.

The same data set, now with this note: reversed-phase C18 HPLC column; preparation examples; HPLC, acidic range pH 2.7, formic acid; read-out: log P (HCOOH).
As to `O=C1CC(c2ccc(Cl)cc2Cl)=NO1` [3-(2,4-dichlorophenyl)isoxazol-5(4H)-one], the chromatographic logP was 2.44.

Consider `Cc1ccc(/C=C2\C(=O)ON=C2c2ccc(C(C)(C)C)cc2)s1` [I-27, 3-(4-tert-butylphenyl)-4-(2-(5-methylthienyl)methylene)isoxazol-5(4H)-one], for which the chromatographic logP was determined as 4.7.
